We go through 27 substances from patent US20120016009A1, “Optimized Methods For Delivery Of DSRNA Targeting The PCSK9 Gene” (priority 2008, published 2012).

In the oligonucleotide strings, read from the 5' end, every base follows the letter of its sugar. An asterisk marks phosphorothioate; unmarked linkages are phosphodiester. Other units and linkages are bracketed, terminal groups are in braces. A string of capitals states the bases alone. [Ab] = 3'-terminal abasic nucleotide; e = 2'-O-(2-methoxyethyl) (MOE); d = 2'-deoxy (DNA); m = 2'-O-methyl; r = 2'-OH (RNA); {P} = phosphate; f = 2'-fluoro

The series deals with PCSK9 mRNA. The series is described as follows: In vitro screening of modified dsRNAs targeted to PCSK9 (Table 2b; cell type not given). Format: cell-based. The settings on record: 30 nM siRNA. The procedure: For transfection with siRNA, HuH7, HepG2, or HeLa cells were seeded at a density of 2.0×10^4 cells/well in 96-well plates and transfected directly. Transfection of siRNA (30 nM for single dose screen) was carried out with lipofectamine 2000 (Invitrogen GmbH, Karlsruhe, Germany, cat. No. 11668-019) as described by the manufacturer.
24 hours after transfection HuH7 and HepG2 cells were lysed and PCSK9 mRNA levels were quantified with the Quantigene Explore Kit (Genosprectra, Dumbarton Circle Fremont, USA, cat. No. QG-000-02) according to the protocol. PCSK9 mRNA levels were normalized to GAP-DH mRNA. For each siRNA eight individual datapoints were collected. siRNA duplexes unrelated to PCSK9 gene were used as control. The activity of a given PCSK9 specific siRNA duplex was expressed as percent PCSK9 mRNA concentration in treated cells relative to PCSK9 mRNA concentration in cells treated with the control siRNA duplex.
Tables 1b and 2b (and FIG. 6A) summarize the results and provide examples of in vitro screens in different cell lines at different doses. Silencing of PCSK9 transcript was expressed as percentage of remaining transcript at a given dose.

As for “AD-12363: modified dsRNA, SEQ ID NO:1423/1424 (chain 1 GCCUGGAGUUUAUUCGGAA; chain 2 rUrUrCrCrGmAmArUrAmAmArCrUrCrCrAmGmGmC*mC*mU; chain 1: sugars from the 5' end rererererererererer, all phosphodiester, methylation of C and T or U not given here)”, the “Remaining mRNA in % of controls at siRNA conc. of 30 nM” value (from here on “Remaining mRNA in % of controls”) is recorded as 11%.

Turning to “AD-12395: modified dsRNA, SEQ ID NO:1485/1486 (chain 1 GCCUGGAGUUUAUUCGGAATT; chain 2 {P}-fUfUfCfCrGrArAfUrArArAfCfUfCfCrArGrGfC*fC*fU; chain 1: sugars from the 5' end rerererererererererdd, linkages o19 s1 (s phosphorothioate, o phosphodiester), methylation of C not given here)”, the “Remaining mRNA in % of controls” value is reported as 55%.

Regarding “AD-12365: modified dsRNA, SEQ ID NO:1427/1428 (chain 1 GCCUGGAGUUUAUUCGGAATT; chain 2 rUrUrCrCrGrArAmUrArArArCrUrCmCrArGrGrCdT*dT; chain 1: sugars from the 5' end rerererererererererdd, linkages o19 s1 (s phosphorothioate, o phosphodiester), methylation of C and T or U not given here)”, the “Remaining mRNA in % of controls” value amounted to 18%.

On to “AD-12069: modified dsRNA, SEQ ID NO:1373/1374 (chain 1 rGmCrCmUrGmGrAmGrUmUrUmArUmUrCmGrGmArA; chain 2 rUrUrCrCrGrArArUrArArArCrUrCrCrArGrGrC*mC*mU)”, for which the “Remaining mRNA in % of controls” value is 13%.

Turning to “AD-12048: modified dsRNA, SEQ ID NO:1331/1332 (chain 1 rGmCmCmUrGrGrArGmUmUmUrAmUmUmCrGrGrArArArA; chain 2 rUrUrUrUrCrCrGrArArUrArArArCrUrCrCrArGrGrC*mC*mU)”, the “Remaining mRNA in % of controls” value is 43%.

For “AD-12358: modified dsRNA, SEQ ID NO:1413/1414 (chain 1 GCCUGGAGUUUAUUCGGAA; chain 2 {P}-mUfUmCfCmGfAmAfUmAfAmAfCmUfCmCfAmGfGmC; chain 1: sugars from the 5' end rererererererererer, all phosphodiester, methylation of C and T or U not given here)”, the “Remaining mRNA in % of controls” value turned out to be 29%.

As to “AD-12346: modified dsRNA, SEQ ID NO:1391/1392 (chain 1 fGmCfCmUfGmGfAmGfUmUfUmAfUmUfCmGfGmAfAdT*dT; chain 2 rUrUrCrCrGmAmArUrAmAmArCrUrCrCrAmGmGmC*mC*mU)”, the “Remaining mRNA in % of controls” value is 13%.

For the substance “AD-12344: modified dsRNA, SEQ ID NO:1387/1388 (chain 1 fGmCfCmUfGmGfAmGfUmUfUmAfUmUfCmGfGmAfAdT*dT; chain 2 rUrUrCrCrGrArArUrArArArCrUrCrCrArGrGrCdT*dT)”, the “Remaining mRNA in % of controls” value worked out at 9%.

For “AD-12401: modified dsRNA, SEQ ID NO:1497/1498 (chain 1 rGmCmCmUrGrGrArGmUmUmUrAmUmUmCrGrGrArAdT*dT; chain 2 {P}-fUfUfCfCrGrArAfUrArArAfCfUfCfCrArGrGfC*fC*fU)”, the “Remaining mRNA in % of controls” value is reported as 13%.

Take “AD-12392: modified dsRNA, SEQ ID NO:1479/1480 (chain 1 rGfCfCfUrGrGrArGrGfUfUfUrAfUfUfCrGrGrArA; chain 2 rUrUrCrCrGrArArUrArArArCrUrCrCrArGrGrCdT*dT)”: the “Remaining mRNA in % of controls” value is listed as 28%.

Consider “AD-12067: modified dsRNA, SEQ ID NO:1369/1370 (chain 1 GCCUGGNAGUUUAUUCGGAATT; chain 2 rUrUrCrCrGrArArUrArArArCrUrCrCrArGrGrCdT*dT; chain 1: chemistry not given here)”, for which the “Remaining mRNA in % of controls” value was determined as 17%.

In the case of “AD-12348: modified dsRNA, SEQ ID NO:1395/1396 (chain 1 rGmCmCmUrGrGrArGmUmUmUrAmUmUmCrGrGrArAdT*dT; chain 2 {P}-mUfUmCfCmGfAmAfUmAfAmAfCmUfCmCfAmGfGmCdT*dT)”, the “Remaining mRNA in % of controls” value was determined as 8%.

On to “AD-12362: modified dsRNA, SEQ ID NO:1421/1422 (chain 1 GCCUGGAGUUUAUUCGGAA; chain 2 mUrUmCrCrGrArAmUrArArArCrUmCmCrArGrGrCdT*dT; chain 1: sugars from the 5' end rererererererererer, all phosphodiester, methylation of C and T or U not given here)”, for which the “Remaining mRNA in % of controls” value is listed as 51%.

With “AD-12058: modified dsRNA, SEQ ID NO:1351/1352 (chain 1 rGmCrCmUrGmGrAmGrUmUrUmArUmUrCmGrGmArA; chain 2 rUrUrCrCrGrArAmUrArArArCrUrCmCrArGrGrCdT*dT)”, the “Remaining mRNA in % of controls” value was found to be 9%.

With “AD-12374: modified dsRNA, SEQ ID NO:1445/1446 (chain 1 rGfCfCfUrGrGrArGfUfUfUrAfUfUfCrGrGrArAdT*dT; chain 2 fUfUfCfCrGrArAfUrArArAfCfUfCfCrArGrGfCdT*dT)”, the “Remaining mRNA in % of controls” value is reported as 9%.

Take “AD-12350: modified dsRNA, SEQ ID NO:1399/1400 (chain 1 fGmCfCmUfGmGfAmGfUmUfUmAfUmUfCmGfGmAfAdTdT[Ab]; chain 2 {P}-mUfUmCfCmGfAmAfUmAfAmAfCmUfCmCfAmGfGmCdTdT[Ab])”: the “Remaining mRNA in % of controls” value is reported as 17%.

As for “AD-12047: modified dsRNA, SEQ ID NO:1329/1330 (chain 1 rGmCmCmUrGrGrArGmUmUmUrAmUmUmCrGrGrArArA; chain 2 rUrUrUrCrCrGrArArUrArArArCrUrCrCrArGrGrC*mC*mU)”, the “Remaining mRNA in % of controls” value is given as 17%.

With “AD-12388: modified dsRNA, SEQ ID NO:1471/1472 (chain 1 rGfCfCfUrGrGrArGrGfUfUfUrAfUfUfCrGrGrArA; chain 2 {P}-mUfUmCfCmGfAmAfUmAfAmAfCmUfCmCfAmGfGmC)”, the “Remaining mRNA in % of controls” value was 19%.

As to “AD-12345: modified dsRNA, SEQ ID NO:1389/1390 (chain 1 fGmCfCmUfGmGfAmGfUmUfUmAfUmUfCmGfGmAfAdT*dT; chain 2 rUrUrCrCrGrArArUrArArArCrUrCrCrArGrGrC*mC*mU)”, the “Remaining mRNA in % of controls” value was 12%.

On to “AD-12369: modified dsRNA, SEQ ID NO:1435/1436 (chain 1 GCCUGGAGUUUAUUCGGAATT; chain 2 rUrUrCrCrGrArArUrArArArCrUrCrCrArGrGrCdT*dT; chain 1: DNA at T, 2'-MOE at CU, RNA at AG, linkages o19 s1 (s phosphorothioate, o phosphodiester), methylation of C and T or U not given here)”, for which the “Remaining mRNA in % of controls” value is 26%.

Take “AD-12394: modified dsRNA, SEQ ID NO:1483/1484 (chain 1 rGfCfCfUrGrGrArGrGfUfUfUrAfUfUfCrGrGrArA; chain 2 mUrUmCrCrGrArAmUrArArArCrUmCmCrArGrGrCdT*dT)”: the “Remaining mRNA in % of controls” value was found to be 75%.

Consider “AD-12373: modified dsRNA, SEQ ID NO:1443/1444 (chain 1 GCCUGGAGUUUAUUCGGAATT; chain 2 rUrUrCrCrGrArArUrArArArCrUrCrCrArGrGrCdT*dT; chain 1: DNA at T, 2'-MOE at CU, RNA at AG, linkages o19 s1 (s phosphorothioate, o phosphodiester), methylation of C and T or U not given here)”, for which the “Remaining mRNA in % of controls” value is on record as 55%.

As to “AD-12367: modified dsRNA, SEQ ID NO:1431/1432 (chain 1 GCCUGGAGUUUAUUCGGAATT; chain 2 rUrUrCrCrGmAmArUrAmAmArCrUrCrCrAmGmGmCdT*dT; chain 1: DNA at T, 2'-MOE at CU, RNA at AG, linkages o19 s1 (s phosphorothioate, o phosphodiester), methylation of C and T or U not given here)”, the “Remaining mRNA in % of controls” value was 42%.

Take “AD-12064: modified dsRNA, SEQ ID NO:1363/1364 (chain 1 GCCUGGNAGUUUAUUCGGAATT; chain 2 rUrUrCrCrGrArAmUrArArArCrUrCmCrArGrGrCdT*dT; chain 1: chemistry not given here; sense strand contains an undefined nucleotide n)”: the “Remaining mRNA in % of controls” value is 15%.

Consider “AD-12381: modified dsRNA, SEQ ID NO:1457/1458 (chain 1 rGfCfCfUrGrGrArGfUfUfUrAfUfUfCrGrGrArAdT*dT; chain 2 {P}-mUfUmCfCmGfAmAfUmAfAmAfCmUfCmCfAmGfGmCdT*dT)”, for which the “Remaining mRNA in % of controls” value came to 10%.

On to “AD-12349: modified dsRNA, SEQ ID NO:1397/1398 (chain 1 GCCUGGNAGUUUAUUCGGAATT; chain 2 {P}-mUfUmCfCmGfAmAfUmAfAmAfCmUfCmCfAmGfGmCdT*dT; chain 1: chemistry not given here; further chemistry not fully specified)”, for which the “Remaining mRNA in % of controls” value was 11%.

Take “AD-12062: modified dsRNA, SEQ ID NO:1359/1360 (chain 1 rGmCrCmUrGmGrAmGrUmUrUmArUmUrCmGrGmArAdTdT[Ab]; chain 2 rUrUrCrCrGmAmArUrAmAmArCrUrCrCrAmGmGmCdTdT[Ab])”: the “Remaining mRNA in % of controls” value is recorded as 10%.
